Data as given in patent publication US5925332A, “Radioimaging and radiochemotherapy phenolic thioether amines and acyl derivatives thereof for use in diagnosing and treating pigmentation disorders” (The Governors of the University of Alberta, priority 1992, dated 1999).
Converted amounts (≈) assume the structure as drawn. “Also recorded” adds a separate entry of the source.

Tests used:
B16F10 melanoma [1] = assay: In vivo biodistribution by whole-body autoradiography; parameters: species or system mouse
Method: 48 hours after injection the animal was killed, frozen and prepared for sectioning. The 20-μm sections were freeze-dried and exposed to x-ray film for whole-body autoradiography.
The s.c. melanoma tumor and the lung with melanoma colonies were the only organs displaying a significant accumulation of the radioactivity.

B16F10 melanoma [2] = assay: In vivo covalent binding of (14C)-NACAP to tissues of melanoma-bearing mice; conditions: female C57BL/6J mice, single i.p. injection, 48 hr, mean + S.D. (n = 3)
Method: In vivo covalent binding of (^14 C)-N-acetyl-4-S-CAP was investigated in mice. Female C57BL/6J mice received a single intraperitoneal injection of 2.0 mmol/kg (^14 C)-N-acetyl-4-S-CAP compound. The animals were killed 48 hours later. The tissues were removed and the covalent binding was determined as follows.
Five different tissues were examined for covalent binding of radioactively labelled N-acetyl-4-S-CAP intermediate(s). The maximum binding of N-acetyl-4-S-CAP was detected in the s.c. melanoma tumor and melanoma colony-bearing lung tissues. […]
^a Female C57BL/6J mice received a single intraperitoneal injection o
2.0 nmol/kg (^14 C)NACAP. The animals were killed 48 hr later, the
tissues were removed, and the covalent binding was determined as describe
^b The data are presented as the means + S.D. (n = 3).

monoamineoxidase (MAO) = conditions: cited from earlier work; for General (non-specific) cytotoxicity: via aldehyde metabolite formed by plasma MAO
melanoma tissue = assay: Distribution of 4-S-CAP in radioimaging or radiochemotherapy; conditions: in vivo
Source text: When the compounds of the formula (I) are used in radiochemotherapy they may be combined with suitable pharmaceutical excipients and carriers wherein the radioactive selected compounds are present in a biologically effective amount in the carriers. Suitable biologically, compatible carriers may be solutions when injected by either the IP or SC route. Suitable biologically, compatible carriers for injection include physiologically normal saline and other types of readily injectable solutions which are well understood by those skilled in the art and readily available. […] For purposes of injection, the concentration of the radiolabelled compound in the injectable solution is normally in the range of 200 to 1200 mg per kg of body weight where the preferred dosage is in the range of 300 mg to 500 mg per kg of body weight. In the following examples, further information is provided as to the amount of compounds injected for purposes of radioimaging.

melanoma = conditions: mice in vivo; cited from earlier work
epidermal melanocytes = conditions: topical application, cited from earlier work
follicular melanocytes = conditions: cited from earlier work
tyrosinase = conditions: cited from earlier work
UT amelanotic melanoma = assay: In vitro cytotoxicity, MTT assay, UT amelanotic melanoma; assay type: cell-based; conditions: 120 h, 5 days
Method: (§1) MTT assay in accordance with the standard procedure
(§2) MTT solution (Sigma catalog No. M2128) was dissolved in PBS at 1 mg/ml and filtered to sterilize the solution. The solution was stored in the dark at 4° C. until used. The growing cells were harvested, counted and inoculated into 96 well microtiter plates (1-2×10^3 cells/well).After 24 h, drugs were applied to culture wells, and the cultures were incubated for 5 days at 37° C. At this time, 50 μl of MTT solution was added to microculture wells. After 4 h incubation at 37° C., supernatant was removed from each well. 150 μl of DMSO was added to solubilized the MTT-formazan product. After mixing gently, absorbance at 540 nm was measured with ELISA plate spectrophotometer.

[3] = Determination of NAP-TEA and N-Acetyl-4-S-CAP in plasma after i.p. injection; assay type: in vivo, C57BL/6J Black Mouse; conditions: NAP-TEA 300 mg/kg i.p., plasma at 5 and 20 minutes
Method: A C57BL/6J Black Mouse was injected at 300 mg/kg body weight by i.p. administration of NAP-TEA. 100 μl of plasma was extracted from the mouse after 5 minutes of injection and after 20 minutes of injection. The plasma samples were treated in accordance with the procedure of Example 2. The plasma samples were passed through a Sep-Pak C18 cartridge in either 5% methanol:water to produce eluent 1 or 50% methanol/water to produce eluent 2. Eluent 2 had the aqueous methanol removed therefrom to provide a residue. The residue was redissolved in methanol/0.1% acetic acid and water in a ratio of 50:50 and subjected to HPLC for both the 5 minute and 20 minute plasma samples. […] The concentration of N-Acetyl-4-S-CAP in the 5 minute extracted sample being considerably greater than in the 20 minute extracted sample to indicate that in vivo NAP-TEA is deacylated to N-Acetyl-4-S-CAP which in turn is then taken up by the mouse melanocytes.

mushroom tyrosinase = assay: Utilization with mushroom tyrosinase (remaining compound by HPLC); assay type: biochemical; conditions: 11 units tyrosinase, pH 6.8, 37° C.
Method: A reaction mixture consisting of NAP-TEA (500 μmol) and of mushroom tyrosinase (11 units) in 1.0 ml of 0.05 M sodium phosphate buffer (pH 6.8) was incubated at 37° C. in a water bath. The reaction was stopped periodically by cooling with ice. Aliquots removed at set time intervals were rapidly cooled to 0° C. in an ice bath and the remaining NAP-TEA was measured using HPLC. HPLC instrument and conditions Water 600 E liquid chromatograph system Conditions: μBondapak C18, Radial-Pak Cartridge (Waters) Mobile phase; 70% MeOH/H2 O, 1 ml/min Detector; Waters Model 441 UV absorbance detector Detection; Wavelength 254 nm

HeLa = assay: In vitro cytotoxicity, MTT assay, HeLa; assay type: cell-based; conditions: Homo sapiens, 120 h, 5 days
Method: as §1, §2

SK-MEL-23 = assay: In vitro cytotoxicity, MTT assay, SK-MEL-23; assay type: cell-based; conditions: 120 h; SK-MEL-23, MTT, 5 days
Method: as §1, §2

[4] = parameters: species or system animals; conditions: in vivo
Method: Experimental tests on animals indicate per single dose toxicity levels in the range of 1,400 mg/kg of body weight for the preferred compound of formula (II), NAP-TEA.

[5] = test system: follicular melanocytes (black hair); assay: Melanocytotoxicity in vivo (depigmentation of black hair); conditions: 300 mg/kg i.p. daily for 14 days, plucked C57BL/6J black mice
Method: Hairs were plucked manually from the back of 6-8 week old C57BL/6J black mice (4 mice). Starting on day 2, daily for 14 days NAP-TEA was injected i.p. The dose was 300 mg/kg body weight.

[6] = O-deacylation of NAP-TEA in mouse plasma in vitro; assay type: in vitro ADME; conditions: 10 μg in 100 μl mouse plasma, shaken one-half minute, HPLC
Method: NAP-TEA was introduced to mouse plasma to determine by in vitro experimentation the extent to which NAP-TEA is deacetylated to form N-Acetyl-4-S-CAP. The procedure was as follows. Into 100 μl of mouse plasma, 10 μg of NAP-TEA was introduced. The mixture was shook for one-half of a minute and then passed through a Sep-Pak C18 cartridge in either 7 ml of 5% methanol/water to form eluent 1 or in 4 ml of 50% methanol/water to form eluent 2. Both eluents 1 and eluents 2 were collected. Aqueous methanol was removed from eluent 2 to provide a residue which was subjected to HPLC under the following conditions. […] The residue was mixed with methanol:water at 50:50 with a flow rate through the radiograph at 1 ml/min. The detector was a Water Associates Model 441 with detection by ultraviolet at 250 nm.

hair follicles = assay: Depigmenting effect on newborn black mice; assay type: in vivo, C57BL/6J black mice; conditions: single i.p. dose 300 mg/kg, 3 day old mice
Method: Six newborn (3 day old) C57BL/6J black mice were injected i.p. with a single dose of 0.1 mL of NAP-TEA solution (300 mg/kg body weight).

functioning melanocytes = assay: In vivo melanocytotoxicity in pig, topical application, Dopa-positive melanocyte count; parameters: species or system Yucatan pig; conditions: topical twice a day for 8 weeks
Method: Solutions of 15% NAP-TEA in DMSO(w/v) and of 15% NAP-TEA in 60% EtOH(w/v) were prepared for topical application to a Yucatan pig. NAP-TEA was applied to the back skin of the pig twice a day for 8 weeks. After 8 weeks, punch biopsy was performed from the application area and from normal skin. Specimens obtained were kept in 2N NaBr solution for 3 hours followed by separation of the epidermis from dermis. Specimens of epidermis were incubated for 3 hours in phosphate buffer (pH 7.4) containing L-Dopa. The specimens were fixed in 10% neutral formalin solution and then washed twice in PBS. Finally, the specimens were mounted in glycerol gel. The numbers of Dopa-positive melanocytes in 9 adjacent 1 mm^2 fields from each sample were counted.

Structure (SMILES): CC(=O)NCCS[14c]1[14cH][14cH][14c](O)[14cH][14cH]1 [(14C)-NACAP, N-acetyl-4-S-cysteaminyl (U-^14 C) phenol]
- Radioactivity in normal organs by whole-body autoradiography (B16F10 melanoma [1]; 48 hours after i.p. injection, mouse): not detectable in any normal organs except the lumen of the large intestine
- Radioactivity in melanoma-bearing organs by whole-body autoradiography (B16F10 melanoma [1]; mouse with s.c. B16F10 tumor and B16F10 lung colonies, single i.p. injection 5.0 μCi, 48 hours): showed radioactivity in infected organs
- Convalent Binding, B16F10 melanoma s.c. tumor (B16F10 melanoma [2]): 0.521 + 0.076 nmol covalently bound/kg of protein
- Convalent Binding, kidney (B16F10 melanoma [2]): 0.008 + 0.001 nmol covalently bound/kg of protein
- Convalent Binding, liver (B16F10 melanoma [2]): 0.013 + 0.003 nmol covalently bound/kg of protein
- Convalent Binding, lungs with B16F10 melanoma colonies (B16F10 melanoma [2]): 0.330 + 0.113 nmol covalently bound/kg of protein
- Convalent Binding, lungs without B16F10 melanoma colonies (B16F10 melanoma [2]): 0.010 + 0.001 nmol covalently bound/kg of protein

Structure (SMILES): NCCSc1ccc(O)cc1 [Compound 4-S-CAP, 4-S-cysteaminylphenol]
- Substrate for monoamineoxidase (MAO) (monoamineoxidase (MAO); plasma): substrate for monoamineoxidase (MAO)
- General (non-specific) cytotoxicity (monoamineoxidase (MAO)): high toxicity; also recorded: some general cytotoxicity
- Tissue accumulation in radioimaging or radiochemotherapy (melanoma tissue): collects in the eye as well as in the melanoma tissue
- Antimelanoma effect (lifespan of melanoma-bearing mice, inhibition of melanoma growth) (melanoma): potent agent in prolonging the lifespan of melanoma-bearing mice
- Inflammatory changes of the skin (epidermal melanocytes; guinea pigs): prominent
- Depigmentation of black guinea pig skin (epidermal melanocytes): demonstrated depigmenting properties
- Effect on albino follicles (follicular melanocytes; albino follicles): no effect on the albino follicles
- Cytotoxicity on black hair follicles (follicular melanocytes; black follicles): demonstrated cytotoxicity in the depigmentation of black hair follicles

Structure (SMILES): NC(CSc1ccc(O)cc1)C(=O)O (stereo not drawn) [Compound 4-S-CP, 4-S-cysteinylphenol]
- Antimelanoma effect (lifespan of melanoma-bearing mice, inhibition of melanoma growth) (melanoma): some inhibition of melanoma growth

Structure (SMILES): CC(=O)NCCSc1ccc(O)cc1 [N-Acetyl-4-S-CAP, N-acetyl-4-S-cysteaminylphenol]
- General (non-specific) cytotoxicity (monoamineoxidase (MAO)): absence of such cytotoxicity
- Substrate of tyrosinase (tyrosinase): superior substrate
- Antimelanoma effect (lifespan of melanoma-bearing mice, inhibition of melanoma growth) (melanoma): potent antimelanoma properties
- IC50 (UT amelanotic melanoma): 12 µg/mL (≈ 56.8 µM)
- Compound detected in plasma by HPLC after NAP-TEA injection [3]: evidence of N-Acetyl-4-S-CAP
- Substrate of mushroom tyrosinase (concentration remaining in the reaction mixture) (mushroom tyrosinase): dropped off rapidly over 25 minutes to almost zero amount after 50 minutes
- IC50 (HeLa): 75 µg/mL (≈ 355 µM)
- IC50 (SK-MEL-23): 25 µg/mL (≈ 118 µM)

Structure (SMILES): CC(=O)NCCSc1ccc(OC(C)=O)cc1 [NAP-TEA, N-{2-((4-Acetoxyphenyl)-thio)ethyl}acetamide]
- per single dose toxicity level [4]: ~1,400 mg/kg of body weight
- Depigmentation of replacement hair [5]: mice were depigmented with the new replacement hair being almost pure white
- IC50 (UT amelanotic melanoma): 14 µg/mL (≈ 55.3 µM)
- O-deacylation to N-Acetyl-4-S-CAP in mouse plasma [6]: readily deacylated by the mouse plasma
- Depigmentation of hair follicles in newborn mice (hair follicles): depigmented in all hair follicles with the growing hair being light grey
- Compound detected in plasma by HPLC after NAP-TEA injection [3]: no evidence of NAP-TEA
- Substrate of mushroom tyrosinase (concentration remaining in the reaction mixture) (mushroom tyrosinase): not a substrate of mushroom tyrosinase
- IC50 (HeLa): 77 µg/mL (≈ 304 µM)
- Number of functioning melanocytes (Average of 9 fields) (functioning melanocytes; 15% NAP-TEA in 60% EtOH): 74 ± 25 /mm^2
- Number of functioning melanocytes (Average of 9 fields) (functioning melanocytes; 15% NAP-TEA in DMSO): 32 ± 14 /mm^2
- IC50 (SK-MEL-23): 31 µg/mL (≈ 122 µM)

Structure (SMILES): COC(=O)C(N)CSc1ccc(O)cc1 (stereo not drawn) [methyl ester of 4-S-CP]
- Antimelanoma effect (lifespan of melanoma-bearing mice, inhibition of melanoma growth) (melanoma): some inhibition of melanoma growth
